The values below come from patent US10450295B2, “Method of using an indolinone molecule and derivatives for inhibiting liver fibrosis and hepatitis” (Acclaim BioMed USA LLC, priority 2013, dated 2019).

Entries after “also recorded” stand apart in the source; their conditions may differ.

Test [1] relates to collagen type I in fibrotic liver. Description: Carbon tetrachloride liver fibrosis mouse model, immunohistological staining for collagen type I. It counts as in vivo, mice. The procedure: The ability of Hesperadin to inhibit collagen expressions in a liver fibrosis mouse model was then examined. To induce fibrosis in the liver, mice were injected with carbon tetrachloride, twice a week, for 6 weeks. In control group of mice, they were injected with DMSO/saline, twice a week for 2 weeks. For the experimental group of mice, they were injected with either 50 or 500 μg/kg Hesperadin after chronic carbon tetrachloride treatment. […] In contrast, following chronic carbon tetrachloride treatment, collagen type I was expressed strongly at the lobules, the portal areas, the lining of the sinusoid and around the central veins (FIGS. 12A and 12B). […] In mice of carbon tetrachloride treatment alone, collagen type I was strongly expressed in the periphery of the hepatic sinusoids. Forty female ICR mice (6 weeks old) were acquired from the MOE Key laboratory for Regenerative Medicine. To induce liver fibrosis, the mice were injected i.p. with carbon tetrachloride (1.65 ml/kg body weight suspended in 0.1 ml olive oil) twice per week for a total of 6 weeks. In the control group, mice received carbon tetrachloride injection for 6 weeks followed by DMSO or saline injections, twice a week, for two weeks. In the experimental group, mice received carbon tetrachloride for 6 weeks followed by i.p. injections of 50 μg/kg or 500 μg/kg Hesperadin, twice a week, for two weeks. […] The extent of fibrosis was scored according to Zhou, et al. (5): 1=thickened perivenular collagen and a few thin collagen septa; 2=thin septa with incomplete bridging between portal regions; 3=thin septa and extensive bridging; 4=thickened septa with complete bridging of portal regions and a nodular appearance. Collagen content was measured with a Universal Imaging (Chester, Pa.) analysis system. Briefly, trichrome-stained liver sections were analysed using an Axioskope 50 microscope (CarlZeiss Lab). […] Collagen accumulation was calculated as the percentage of the total field at ×40 magnifications that was stained blue. The arrangement and morphology of the hepatocytes will also be examined and recorded. […]

The subject of another test is human HSC's (LX-2). Description: HSC morphology under the microscope. It counts as cell-based. The procedure: In the control cultures, the HSCs appeared morphologically to be like fibroblasts (FIG. 1A). In the presence of Hesperadin, the HSC cells increased in size 2-3 folds (FIGS. 1B and C). The effect of Hesperadin on HSC growth was examined. […] The cell-cycle progression of HSCs is further analyzed in the presence of 0.625 μM Hesperadin using Flow Cytometry. […] Human Hepatic Stellate cells (LX-2 cell line) (HSCs) were obtained from the Key Lab of Regenerative Medicine, Jinan University, Guangzhou, China, which were maintained in Dulbecco's Modified Eagle Medium (DMEM)+10% fetal calf serum and penicillin-streptomycin (100 unit/ml and 0.1 mg/ml, respectively), in 5% CO2 at 37° C. inside a humidified cell incubator. The culture medium was changed every three days. To test the effects of small molecule Hesperadin on the mouse and human HSCs, the cultures were treated with 0.625 μM of Hesperadin for 48 hrs. The cultures were then fixed in ice cold 70% ethanol and incubated in phosphate buffered saline with RNase (0.25 mg/ml), Propidium iodide dye (40 μg/ml) and 0.1% Triton X for an hour at room temperature. […] The proliferation of HSCs was also evaluated by the MTT staining assay with 3-(4,5-Dimethylthiazol-2-yl)-2,5-diphenyltetrazolium bromide). […] The absorbance (at 570 nm) was measured using a BIORAD 3550 Microplate Reader. […]

A further test has as its system Mammalian cells. The settings on record: cited from earlier work.

For the compound `CCS(=O)(=O)Nc1ccc2c(c1)/C(=C(/Nc1ccc(CN3CCCCC3)cc1)c1ccccc1)C(=O)N2` [Hesperadin, (Z)—N-(2-oxo-3-(Phenyl(4-(piperidin-1-ylmethyl)phenylamino)methylene)indolin-5-yl)ethanesulfonamide], the “collagen type I in histological liver sections” value in test [1] (50 μg/kg i.p. twice a week for two weeks after 6 weeks CCl4, mice) is “less collagen type I evident”; in test [1] (500 μg/kg i.p. twice a week for two weeks after 6 weeks CCl4, mice) it was “less collagen type I evident; also recorded: significantly less collagen staining”. Besides, the “quantified intensity of collagen type I staining” value in test [1] (500 μg/kg, FIG. 13, p<0.05) was “significant reduction in collagen type I production and expression”. In the test with human HSC's (LX-2) (0.625 or 1.25 μM, 48 hrs), the “increase in HSC cell size” value was 2-3 folds. Moreover, in the test on human HSC's (LX-2) (0.65 and 1.25 μM, 24 hours), the “increase in HSC size (FIG. 1)” value is “several folds”. Further, the “time to enter anaphase” value with Mammalian cells (cells arrested by taxol or monastrol) was less than 1 h. In the test on Mammalian cells (cells in nocodazole), the “time cells stayed arrested” value is 3 to 5 h. For the same compound, the “effect on nuclear division and cytokinesis” value in the test with Mammalian cells was “blocks nuclear division and cytokinesis”.
